Source: publication PMC12669672, “Structural insights into selective and dual antagonism of EP2 and EP4 prostaglandin receptors” (The EMBO Journal, 2025)
Several values for one entry are separate records, joined by “and”; a condition that tells them apart may be missing. Identical values can stand only once.

What was measured:
Format in all cases: cell-based
[1] = biological target: T1, EP4 S319A (Homo sapiens, UniProt P35408, S319A); assay: GloSensor cAMP assay, antagonism of PGE2-induced cAMP; conditions: for cAMP activity (∆pIC50 from EP4 WT): Grapiprant, S319A; for ΔpIC50: PGE2 0.5 nM, pIC50 mutant - pIC50 WT, mean
T1 construct: The full-length EP2 or EP4 was cloned into the pcDNA3.1 vector (Invitrogen), incorporating an N-terminal FLAG tag; expressed in transfected cells; host or cells: AD293

[2] = biological target: T2, EP4 V320A (Homo sapiens, UniProt P35408, V320A); assay: as above; conditions: for ΔpIC50: PGE2 0.5 nM, pIC50 mutant - pIC50 WT, mean
T2 construct: The full-length EP2 or EP4 was cloned into the pcDNA3.1 vector (Invitrogen), incorporating an N-terminal FLAG tag; expressed in transfected cells; host or cells: AD293

[3] = biological target: T3, EP4 V72A (Homo sapiens, UniProt P35408, V72A); assay: as above; conditions: for cAMP activity (∆pIC50 from EP4 WT): Grapiprant, V72A; for ΔpIC50: PGE2 0.5 nM, pIC50 mutant - pIC50 WT, mean
T3 construct: The full-length EP2 or EP4 was cloned into the pcDNA3.1 vector; FLAG (N); expressed in transfected cells; host or cells: AD293 cells

[4] = biological target: T4, constitutively active EP4 V320A (Homo sapiens, UniProt P35408, V320A); assay: GloSensor cAMP assay, inhibition of constitutive activity; conditions: for ΔpIC50: no PGE2, pIC50 mutant - pIC50 WT, mean
T4 construct: The full-length EP2 or EP4 was cloned into the pcDNA3.1 vector (Invitrogen), incorporating an N-terminal FLAG tag; expressed in transfected cells; host or cells: AD293

[5] = 1 h, Grapiprant log([M]) -7, read-out: % cAMP activity (normalized to WT)
[6] = 1 h, Grapiprant log([M]) -8, read-out: % cAMP activity (normalized to WT)
[7] = 1 h, Grapiprant log([M]) -9, read-out: % cAMP activity (normalized to WT)
[8] = 1 h, Grapiprant log([M]) -10, read-out: % cAMP activity (normalized to WT)
[9] = 1 h, Grapiprant log([M]) -11, read-out: % cAMP activity (normalized to WT)
[10] = 1 h, Grapiprant log([M]) -12, read-out: % cAMP activity (normalized to WT)

T2 sequence (P35408 whole entry V320A): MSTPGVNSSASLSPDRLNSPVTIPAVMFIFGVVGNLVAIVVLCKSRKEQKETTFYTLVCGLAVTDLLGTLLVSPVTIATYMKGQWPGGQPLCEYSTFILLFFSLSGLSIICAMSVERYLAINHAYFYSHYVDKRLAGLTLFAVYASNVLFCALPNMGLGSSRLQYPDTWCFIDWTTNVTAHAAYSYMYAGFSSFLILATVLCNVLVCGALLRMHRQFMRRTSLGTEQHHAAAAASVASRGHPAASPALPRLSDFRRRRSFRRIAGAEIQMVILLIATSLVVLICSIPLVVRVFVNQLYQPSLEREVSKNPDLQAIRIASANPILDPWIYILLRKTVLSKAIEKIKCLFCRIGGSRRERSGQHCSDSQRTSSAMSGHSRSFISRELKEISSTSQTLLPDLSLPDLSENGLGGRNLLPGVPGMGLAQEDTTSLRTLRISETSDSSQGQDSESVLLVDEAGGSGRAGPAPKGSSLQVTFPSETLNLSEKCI
T4 sequence (P35408 whole entry V320A): as above
T3 sequence (P35408 whole entry V72A): as the sequence (P35408 whole entry V320A) above, with V72A, A320V counted along it
T1 sequence (P35408 whole entry S319A): as the sequence (P35408 whole entry V320A) above, with S319A, A320V counted along it

IC50 [1]: 186 nM | remaining activity at 10 µM ([1]; 1 h, Grapiprant log([M]) -5, read-out: % cAMP activity (normalized to WT)): 3.59% | remaining activity at 1 µM ([1]; 1 h, Grapiprant log([M]) -6, read-out: % cAMP activity (normalized to WT)): 3.85% | remaining activity at 0.1 µM [1, 5]: 22.9% | remaining activity at 0.01 µM [1, 6]: 31.9% | remaining activity at 0.001 µM [1, 7]: 32.1% | remaining activity at 0.0001 µM [1, 8]: 27.9% | remaining activity at 10 pM [1, 9]: 33% | remaining activity at 1 pM [1, 10]: 28.4% | cAMP activity (∆pIC50 from EP4 WT) ([1]; Mean): -0.645 | cAMP activity (∆pIC50 from EP4 WT) ([1]; single experiments 1st-3rd): -0.523 and -0.642 and -0.769 | ΔpIC50 [1]: -0.64 ± 0.07 | ΔpIC50 ([1]; listed as grapiprant): reduced the potency | IC50 [2]: 339 nM | remaining activity at 0.0001 µM [2, 8]: 39.6% | cAMP activity (∆pIC50 from EP4 WT) ([2]; Grapiprant, V320A, Mean): -0.775 | ΔpIC50 [2]: -0.78 ± 0.12 | ΔpIC50 ([2]; listed as grapiprant): reduced the potency | IC50 [3]: 110 nM | remaining activity at 0.1 µM [3, 5]: 25.9% | remaining activity at 0.01 µM [3, 6]: 35.8% | remaining activity at 0.001 µM [3, 7]: 45% | remaining activity at 0.0001 µM [3, 8]: 46.7% | remaining activity at 10 pM [3, 9]: 54.1% | remaining activity at 1 pM [3, 10]: 41% | cAMP activity (∆pIC50 from EP4 WT) ([3]; Mean): -0.294 | cAMP activity (∆pIC50 from EP4 WT) ([3]; single experiments 1st-3rd): -0.217 and -0.413 and -0.252 | ΔpIC50 [3]: -0.29 ± 0.06 | ΔpIC50 ([3]; listed as grapiprant): reduced the potency | IC50 [4]: 11.2 nM | remaining activity at 0.1 µM ([4]; 1 h, Grapiprant log([M]) -7.00, EP4-V320A, read-out: % cAMP activity (normalized to WT)): 7.66% | remaining activity at 0.01 µM ([4]; 1 h, Grapiprant log([M]) -8.00, EP4-V320A, read-out: % cAMP activity (normalized to WT)): 35.4% | remaining activity at 0.001 µM ([4]; 1 h, Grapiprant log([M]) -9.00, EP4-V320A, read-out: % cAMP activity (normalized to WT)): 48.1% | remaining activity at 0.0001 µM ([4]; 1 h, Grapiprant log([M]) -10.00, EP4-V320A, read-out: % cAMP activity (normalized to WT)): 61.4% | remaining activity at 10 pM ([4]; 1 h, Grapiprant log([M]) -11.00, EP4-V320A, read-out: % cAMP activity (normalized to WT)): 56.1% | remaining activity at 1 pM ([4]; 1 h, Grapiprant log([M]) -12.00, EP4-V320A, read-out: % cAMP activity (normalized to WT)): 50.8% | Grapiprant cAMP activity (∆pIC50 from EP4 WT), Mean ([4]; V320A, Mean): -0.388 | ΔpIC50 [4]: -0.39 ± 0.12 | ΔpIC50 ([4]; listed as grapiprant): reduced the potency
Structure (SMILES): CCc1nc2c(C)nc(C)cc2n1-c1ccc(CCNC(=O)NS(=O)(=O)c2ccc(C)cc2)cc1 [Grapiprant]
